From publication PMC12748989 (Nature Communications, 2025)

Columns and labels:
PBMC = conditions: 12.5 µM

SMILES	Average (percentage cell inhibition), Dmastoparan MDA-MB231 12.5uM (MDA-MB-231 cells)	Average (percentage cell inhibition), Mastoparan PBMC (PBMC)
CC[C@H](C)[C@H](N)C(=O)N[C@@H](CC(N)=O)C(=O)N[C@@H](CC(C)C)C(=O)N[C@@H](CCCCN)C(=O)N[C@@H](C)C(=O)N[C@@H](CC(C)C)C(=O)N[C@@H](C)C(=O)N[C@@H](C)C(=O)N[C@@H](CCCCN)C(=O)N[C@@H](C)C(=O)N[C@@H](CCCCN)C(=O)N[C@@H](CCCCN)C(=O)N[C@H](C(=O)N[C@@H](CC(C)C)C(N)=O)[C@@H](C)CC [K9]	18.9586%	-2.726%
CC[C@H](C)[C@H](N)C(=O)N[C@@H](CC(N)=O)C(=O)N[C@@H](CC(C)C)C(=O)N[C@@H](CCCCN)C(=O)N[C@@H](C)C(=O)N[C@@H](CC(C)C)C(=O)N[C@@H](C)C(=O)N[C@@H](C)C(=O)N[C@@H](CC(C)C)C(=O)N[C@@H](C)C(=O)N[C@@H](CCCCN)C(=O)N[C@@H](CCCCN)C(=O)N[C@@H](C)C(=O)N[C@@H](CC(C)C)C(N)=O [A13]	24.196%	5.573%
CC[C@H](C)[C@H](N)C(=O)N[C@@H](CC(N)=O)C(=O)N[C@@H](CC(C)C)C(=O)N[C@@H](CCCCN)C(=O)N[C@@H](C)C(=O)N[C@@H](CC(C)C)C(=O)N[C@@H](C)C(=O)N[C@@H](C)C(=O)N[C@@H](CC(C)C)C(=O)N[C@@H](C)C(=O)N[C@@H](CCCCN)C(=O)N[C@@H](Cc1c[nH]c2ccccc12)C(=O)N[C@H](C(=O)N[C@@H](CC(C)C)C(N)=O)[C@@H](C)CC [W12]	64.637%	73.0011%
CC[C@H](C)[C@H](N)C(=O)N[C@@H](CC(N)=O)C(=O)N[C@@H](CC(C)C)C(=O)N[C@@H](CCCCN)C(=O)N[C@@H](C)C(=O)N[C@@H](CC(C)C)C(=O)N[C@@H](C)C(=O)N[C@@H](Cc1c[nH]c2ccccc12)C(=O)N[C@@H](CC(C)C)C(=O)N[C@@H](C)C(=O)N[C@@H](CCCCN)C(=O)N[C@@H](CCCCN)C(=O)N[C@H](C(=O)N[C@@H](CC(C)C)C(N)=O)[C@@H](C)CC [W8]	62.4515%	51.7838%
CC[C@H](C)[C@H](N)C(=O)N[C@@H](CC(N)=O)C(=O)N[C@@H](CC(C)C)C(=O)N[C@@H](CCCCN)C(=O)N[C@@H](C)C(=O)N[C@@H](CC(C)C)C(=O)N[C@@H](C)C(=O)N[C@@H](C)C(=O)N[C@@H](CC(C)C)C(=O)N[C@H](C(=O)N[C@@H](CCCCN)C(=O)N[C@@H](CCCCN)C(=O)N[C@H](C(=O)N[C@@H](CC(C)C)C(N)=O)[C@@H](C)CC)[C@@H](C)O [T10]	27.2715%	8.853%
CC[C@H](C)[C@H](N)C(=O)N[C@@H](CC(N)=O)C(=O)N[C@@H](CC(C)C)C(=O)N[C@@H](CCCCN)C(=O)N[C@@H](C)C(=O)N[C@@H](CC(C)C)C(=O)N[C@@H](CO)C(=O)N[C@@H](C)C(=O)N[C@@H](CC(C)C)C(=O)N[C@@H](C)C(=O)N[C@@H](CCCCN)C(=O)N[C@@H](CCCCN)C(=O)N[C@H](C(=O)N[C@@H](CC(C)C)C(N)=O)[C@@H](C)CC [S7]	34.1343%	-4.112%
CC[C@H](C)[C@H](N)C(=O)N[C@@H](CC(N)=O)C(=O)N[C@@H](CC(C)C)C(=O)N[C@@H](CCCCN)C(=O)N[C@@H](C)C(=O)N[C@@H](CCC(=O)O)C(=O)N[C@@H](C)C(=O)N[C@@H](C)C(=O)N[C@@H](CC(C)C)C(=O)N[C@@H](C)C(=O)N[C@@H](CCCCN)C(=O)N[C@@H](CCCCN)C(=O)N[C@H](C(=O)N[C@@H](CC(C)C)C(N)=O)[C@@H](C)CC [E6]	39.2363%	3.211%
CC[C@H](C)[C@H](N)C(=O)N[C@@H](CC(N)=O)C(=O)N[C@@H](CC(C)C)C(=O)N[C@@H](CCCCN)C(=O)N[C@@H](C)C(=O)N[C@@H](CC(C)C)C(=O)N[C@@H](C)C(=O)N[C@@H](C)C(=O)N[C@@H](CC(C)C)C(=O)N1CCC[C@H]1C(=O)N[C@@H](CCCCN)C(=O)N[C@@H](CCCCN)C(=O)N[C@H](C(=O)N[C@@H](CC(C)C)C(N)=O)[C@@H](C)CC [P10]	28.7019%	-7.837%
CC[C@H](C)[C@H](N)C(=O)N[C@@H](CC(N)=O)C(=O)N[C@@H](CC(C)C)C(=O)N[C@@H](CCCCN)C(=O)N[C@@H](C)C(=O)N[C@@H](CC(C)C)C(=O)N[C@@H](C)C(=O)N[C@@H](C)C(=O)N[C@@H](CC(C)C)C(=O)N[C@@H](C)C(=O)N[C@@H](CCCCN)C(=O)N[C@H](C(=O)N[C@H](C(=O)N[C@@H](CC(C)C)C(N)=O)[C@@H](C)CC)[C@@H](C)CC [I12]	44.3343%	20.8332%
CC[C@H](C)[C@H](N)C(=O)N[C@@H](CC(N)=O)C(=O)N[C@@H](CC(C)C)C(=O)N[C@@H](CCCCN)C(=O)N[C@@H](C)C(=O)N[C@@H](CC(C)C)C(=O)N[C@@H](C)C(=O)N[C@@H](C)C(=O)N[C@H](C(=O)N[C@@H](C)C(=O)N[C@@H](CCCCN)C(=O)N[C@@H](CCCCN)C(=O)N[C@H](C(=O)N[C@@H](CC(C)C)C(N)=O)[C@@H](C)CC)[C@@H](C)CC [I9]	25.9927%	12.8506%
CC[C@H](C)[C@H](N)C(=O)N[C@@H](CC(N)=O)C(=O)N[C@@H](CC(C)C)C(=O)N[C@@H](CCCCN)C(=O)N[C@@H](C)C(=O)N[C@@H](CC(C)C)C(=O)N[C@@H](C)C(=O)N[C@@H](CCC(N)=O)C(=O)N[C@@H](CC(C)C)C(=O)N[C@@H](C)C(=O)N[C@@H](CCCCN)C(=O)N[C@@H](CCCCN)C(=O)N[C@H](C(=O)N[C@@H](CC(C)C)C(N)=O)[C@@H](C)CC [Q8]	46.0978%	5.553%
CC[C@H](C)[C@H](N)C(=O)N[C@@H](CC(N)=O)C(=O)N[C@@H](CC(C)C)C(=O)N[C@@H](CCCCN)C(=O)N[C@@H](C)C(=O)N[C@@H](CC(C)C)C(=O)N[C@@H](C)C(=O)N[C@@H](C)C(=O)N[C@@H](CC(C)C)C(=O)N[C@@H](C)C(=O)N[C@@H](CCCCN)C(=O)N[C@@H](CCCCN)C(=O)N[C@H](C(=O)N[C@@H](CC(C)C)C(N)=O)[C@@H](C)CC [Lab Mastoparan L, reference compound]	41.709%	12.353%
CC[C@H](C)[C@H](N)C(=O)N[C@@H](CC(N)=O)C(=O)N[C@@H](CC(C)C)C(=O)N[C@@H](CCCCN)C(=O)N[C@@H](C)C(=O)N[C@@H](CC(C)C)C(=O)N[C@@H](C)C(=O)N[C@@H](CCCCN)C(=O)N[C@@H](CC(C)C)C(=O)N[C@@H](C)C(=O)N[C@@H](CCCCN)C(=O)N[C@@H](CCCCN)C(=O)N[C@H](C(=O)N[C@@H](CC(C)C)C(N)=O)[C@@H](C)CC [K8]	44.6441%	13.8127%
CC[C@H](C)[C@H](N)C(=O)N[C@@H](CC(N)=O)C(=O)N[C@@H](CC(C)C)C(=O)N[C@@H](CCCCN)C(=O)N[C@@H](C)C(=O)N[C@@H](CC(C)C)C(=O)N[C@@H](C)C(=O)N[C@@H](C)C(=O)N[C@@H](CC(C)C)C(=O)N[C@@H](C)C(=O)N[C@@H](CCCCN)C(=O)N[C@@H](CCCCN)C(=O)N[C@H](C(=O)N[C@@H](Cc1ccc(O)cc1)C(N)=O)[C@@H](C)CC [Y14]	29.2623%	-0.4376%
CC[C@H](C)[C@H](N)C(=O)N[C@@H](CC(N)=O)C(=O)N[C@@H](CC(C)C)C(=O)N[C@@H](CCCCN)C(=O)N[C@@H](C)C(=O)N[C@@H](CC(C)C)C(=O)N[C@@H](C)C(=O)N[C@@H](C)C(=O)N[C@@H](CCC(N)=O)C(=O)N[C@@H](C)C(=O)N[C@@H](CCCCN)C(=O)N[C@@H](CCCCN)C(=O)N[C@H](C(=O)N[C@@H](CC(C)C)C(N)=O)[C@@H](C)CC [Q9]	30.6331%	2.087%
CC[C@H](C)[C@H](N)C(=O)N[C@@H](CC(N)=O)C(=O)N[C@@H](CC(C)C)C(=O)N[C@@H](CCCCN)C(=O)N[C@@H](C)C(=O)N[C@@H](CCCCN)C(=O)N[C@@H](C)C(=O)N[C@@H](C)C(=O)N[C@@H](CC(C)C)C(=O)N[C@@H](C)C(=O)N[C@@H](CCCCN)C(=O)N[C@@H](CCCCN)C(=O)N[C@H](C(=O)N[C@@H](CC(C)C)C(N)=O)[C@@H](C)CC [K6]	7.2133%	-1.883%
CC[C@H](C)[C@H](N)C(=O)N[C@@H](CC(N)=O)C(=O)N[C@@H](CC(C)C)C(=O)N[C@@H](CCCCN)C(=O)N[C@@H](C)C(=O)N[C@@H](CC(C)C)C(=O)N[C@H](C(=O)N[C@@H](C)C(=O)N[C@@H](CC(C)C)C(=O)N[C@@H](C)C(=O)N[C@@H](CCCCN)C(=O)N[C@@H](CCCCN)C(=O)N[C@H](C(=O)N[C@@H](CC(C)C)C(N)=O)[C@@H](C)CC)[C@@H](C)CC [I7]	72.6071%	39.466%
CC[C@H](C)[C@H](N)C(=O)N[C@@H](CC(N)=O)C(=O)N[C@@H](CC(C)C)C(=O)N[C@@H](CCCCN)C(=O)N[C@@H](CC(C)C)C(=O)N[C@@H](CC(C)C)C(=O)N[C@@H](C)C(=O)N[C@@H](C)C(=O)N[C@@H](CC(C)C)C(=O)N[C@@H](C)C(=O)N[C@@H](CCCCN)C(=O)N[C@@H](CCCCN)C(=O)N[C@H](C(=O)N[C@@H](CC(C)C)C(N)=O)[C@@H](C)CC [L5]	46.6396%	25.5295%
CC[C@H](C)[C@H](N)C(=O)N[C@@H](CC(N)=O)C(=O)N1CCC[C@H]1C(=O)N[C@@H](CCCCN)C(=O)N[C@@H](C)C(=O)N[C@@H](CC(C)C)C(=O)N[C@@H](C)C(=O)N[C@@H](C)C(=O)N[C@@H](CC(C)C)C(=O)N[C@@H](C)C(=O)N[C@@H](CCCCN)C(=O)N[C@@H](CCCCN)C(=O)N[C@H](C(=O)N[C@@H](CC(C)C)C(N)=O)[C@@H](C)CC [P3]	17.7289%	-5.207%
